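Following 48 hours of exposure in 96-well plates, responses at five concentrations were used to interpolate endpoints linearly. Abbreviation: GI50, concentration required for 50% inhibition of growth. TGI denotes the concentration required for complete inhibition of growth.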
How the values were obtained:
Experiment in all cases: NCI tumour cell line growth inhibition, 48 h
MDA-MB-435 = system: MDA-MB-435
OVCAR-8 ovarian = system: OVCAR-8 ovarian
HL-60(TB) leukemia = system: HL-60(TB) leukemia
RPMI-8226 leukemia = system: RPMI-8226 leukemia
NCI-H226 lung = system: NCI-H226 lung
786-0 renal = system: 786-0 renal
HOP-62 NSCLC = system: HOP-62 NSCLC
HCT-15 colon = system: HCT-15 colon
HOP-92 NSCLC = system: HOP-92 NSCLC
DU-145 prostate = system: DU-145 prostate
MALME-3M melanoma = system: MALME-3M melanoma
A549 NSCLC = system: A549 NSCLC
PC-3 prostate = system: PC-3 prostate
K-562 leukemia = system: K-562 leukemia
CCRF-CEM leukemia = system: CCRF-CEM leukemia
ACHN renal = system: ACHN renal
OVCAR-3 ovarian = system: OVCAR-3 ovarian
CAKI-1 renal = system: CAKI-1 renal
RXF 393 renal = system: RXF 393 renal
U251 CNS = system: U251 CNS
SN12C renal = system: SN12C renal
MDA-MB-468 breast = system: MDA-MB-468 breast
OVCAR-5 ovarian = system: OVCAR-5 ovarian
KM12 colon = system: KM12 colon
SF-539 CNS = system: SF-539 CNS
SK-MEL-5 melanoma = system: SK-MEL-5 melanoma
SR leukemia = system: SR leukemia
LOX IMVI melanoma = system: LOX IMVI melanoma
MCF7 breast = system: MCF7 breast
UACC-62 melanoma = system: UACC-62 melanoma
MOLT-4 leukemia = system: MOLT-4 leukemia
SK-OV-3 ovarian = system: SK-OV-3 ovarian
M14 melanoma = system: M14 melanoma
NCI-H23 lung = system: NCI-H23 lung
HS 578T breast = system: HS 578T breast
T-47D breast = system: T-47D breast
OVCAR-4 ovarian = system: OVCAR-4 ovarian
HCT-116 colon = system: HCT-116 colon
SF-268 CNS = system: SF-268 CNS
SK-MEL-28 melanoma = system: SK-MEL-28 melanoma
EKVX NSCLC = system: EKVX NSCLC
COLO 205 colon = system: COLO 205 colon
UACC-257 melanoma = system: UACC-257 melanoma
SW-620 colon = system: SW-620 colon
A498 renal = system: A498 renal
IGROV1 ovarian = system: IGROV1 ovarian
NCI-H460 lung = system: NCI-H460 lung
SF-295 CNS = system: SF-295 CNS
NCI/ADR-RES ovarian = system: NCI/ADR-RES ovarian
NCI-H522 lung = system: NCI-H522 lung
TK-10 renal = system: TK-10 renal
HT29 colon = system: HT29 colon
SNB-19 CNS = system: SNB-19 CNS
BT-549 breast = system: BT-549 breast
HCC-2998 colon = system: HCC-2998 colon

SMILES: COc1ccc(C(=O)Nc2ccc(-c3ccc4c(c3)NC(=O)/C4=C\c3ccc[nH]3)cc2)cc1
- GI50 (MDA-MB-435): > 100 µM
- TGI (MDA-MB-435): > 100 µM
- GI50 (OVCAR-8 ovarian): 2.95 µM
- TGI (OVCAR-8 ovarian): 10.3 µM
- GI50 (HL-60(TB) leukemia): 32.4 µM
- TGI (HL-60(TB) leukemia): > 100 µM
- GI50 (RPMI-8226 leukemia): 38.4 µM
- TGI (RPMI-8226 leukemia): > 100 µM
- GI50 (NCI-H226 lung): 4.08 µM
- TGI (NCI-H226 lung): > 100 µM
- GI50 (786-0 renal): 21.8 µM
- TGI (786-0 renal): 71.9 µM
- GI50 (HOP-62 NSCLC): 3.76 µM
- TGI (HOP-62 NSCLC): 13.5 µM
- GI50 (HCT-15 colon): 23 µM
- TGI (HCT-15 colon): > 100 µM
- GI50 (HOP-92 NSCLC): 42.8 µM
- TGI (HOP-92 NSCLC): > 100 µM
- GI50 (DU-145 prostate): 8.3 µM
- TGI (DU-145 prostate): > 100 µM
- GI50 (MALME-3M melanoma): 13.4 µM
- TGI (MALME-3M melanoma): > 100 µM
- GI50 (A549 NSCLC): 15.2 µM
- TGI (A549 NSCLC): > 100 µM
- GI50 (PC-3 prostate): 27.7 µM
- TGI (PC-3 prostate): > 100 µM
- GI50 (K-562 leukemia): 25.2 µM
- TGI (K-562 leukemia): > 100 µM
- GI50 (CCRF-CEM leukemia): > 100 µM
- TGI (CCRF-CEM leukemia): > 100 µM
- GI50 (ACHN renal): 48.2 µM
- TGI (ACHN renal): > 100 µM
- GI50 (OVCAR-3 ovarian): 47.1 µM
- TGI (OVCAR-3 ovarian): > 100 µM
- GI50 (CAKI-1 renal): > 100 µM
- TGI (CAKI-1 renal): > 100 µM
- GI50 (RXF 393 renal): 8.74 µM
- TGI (RXF 393 renal): 50.8 µM
- GI50 (U251 CNS): 5.29 µM
- TGI (U251 CNS): 18.9 µM
- GI50 (SN12C renal): 68.9 µM
- TGI (SN12C renal): > 100 µM
- GI50 (MDA-MB-468 breast): 0.243 µM
- TGI (MDA-MB-468 breast): 1.71 µM
- GI50 (OVCAR-5 ovarian): 30.8 µM
- TGI (OVCAR-5 ovarian): > 100 µM
- GI50 (KM12 colon): 53.7 µM
- TGI (KM12 colon): > 100 µM
- GI50 (SF-539 CNS): > 100 µM
- TGI (SF-539 CNS): > 100 µM
- GI50 (SK-MEL-5 melanoma): > 100 µM
- TGI (SK-MEL-5 melanoma): > 100 µM
- GI50 (SR leukemia): 13.4 µM
- TGI (SR leukemia): > 100 µM
- GI50 (LOX IMVI melanoma): 7.29 µM
- TGI (LOX IMVI melanoma): > 100 µM
- GI50 (MCF7 breast): 0.372 µM
- TGI (MCF7 breast): > 100 µM
- GI50 (UACC-62 melanoma): 20.5 µM
- TGI (UACC-62 melanoma): > 100 µM
- GI50 (MOLT-4 leukemia): 19.4 µM
- TGI (MOLT-4 leukemia): > 100 µM
- GI50 (SK-OV-3 ovarian): > 100 µM
- TGI (SK-OV-3 ovarian): > 100 µM
- GI50 (M14 melanoma): 7.15 µM
- TGI (M14 melanoma): > 100 µM
- GI50 (NCI-H23 lung): 12.4 µM
- TGI (NCI-H23 lung): > 100 µM
- GI50 (HS 578T breast): 5.82 µM
- TGI (HS 578T breast): 49.2 µM
- GI50 (T-47D breast): 3.17 µM
- TGI (T-47D breast): 41.2 µM
- GI50 (OVCAR-4 ovarian): 3.55 µM
- TGI (OVCAR-4 ovarian): 23.2 µM
- GI50 (HCT-116 colon): 15.7 µM
- TGI (HCT-116 colon): > 100 µM
- GI50 (SF-268 CNS): 28.7 µM
- TGI (SF-268 CNS): > 100 µM
- GI50 (SK-MEL-28 melanoma): 79.6 µM
- TGI (SK-MEL-28 melanoma): > 100 µM
- GI50 (EKVX NSCLC): 2.46 µM
- TGI (EKVX NSCLC): > 100 µM
- GI50 (COLO 205 colon): 3.36 µM
- TGI (COLO 205 colon): 12.1 µM
- GI50 (UACC-257 melanoma): 9.07 µM
- TGI (UACC-257 melanoma): > 100 µM
- GI50 (SW-620 colon): 8.39 µM
- TGI (SW-620 colon): > 100 µM
- GI50 (A498 renal): > 100 µM
- TGI (A498 renal): > 100 µM
- GI50 (IGROV1 ovarian): 37.6 µM
- TGI (IGROV1 ovarian): > 100 µM
- GI50 (NCI-H460 lung): 12.7 µM
- TGI (NCI-H460 lung): > 100 µM
- GI50 (SF-295 CNS): 13.9 µM
- TGI (SF-295 CNS): 62.4 µM
- GI50 (NCI/ADR-RES ovarian): 3.84 µM
- TGI (NCI/ADR-RES ovarian): 16.3 µM
- GI50 (NCI-H522 lung): 17 µM
- TGI (NCI-H522 lung): 91.3 µM
- GI50 (TK-10 renal): 19 µM
- TGI (TK-10 renal): > 100 µM
- GI50 (HT29 colon): 4.23 µM
- TGI (HT29 colon): 19.8 µM
- GI50 (SNB-19 CNS): 30.9 µM
- TGI (SNB-19 CNS): > 100 µM
- GI50 (BT-549 breast): 33.4 µM
- TGI (BT-549 breast): > 100 µM
- GI50 (HCC-2998 colon): 9.38 µM
- TGI (HCC-2998 colon): > 100 µM

Reference: PubChem BioAssay (NCI)
